From PubChem BioAssay AID2060606 (Molecular Pharmacology Branch, DTP, NCI, 2025)

System: 922993-354-T-J3-PDC complex spheroids, viability, % test/control
Experiment: Anticancer human tumor 922993-354-T-J3-PDC patient-derived endometrial carcinoma cell line growth inhibition [CLK]
Conditions: for IC50: curve of first compound; for viability, T/C: stronger effect = lower value
Summary of the method: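 Patient-derived tumor cells grown as complex spheroids with HUVEC endothelial cells and mesenchymal stem cells, treated with drug combinations. Concentrations descend in half-log steps from near clinical Cmax, or from 10 microM if Cmax unknown.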

[1] = second compound 0.0316 µM, first compound 0.0316 µM
[2] = second compound 0.0316 µM, first compound 0.1 µM
[3] = second compound 0.0316 µM, first compound 0.316 µM
[4] = second compound 0.0316 µM, first compound 1 µM
[5] = second compound 0.0316 µM, first compound 3.16 µM
[6] = second compound 0.0316 µM, first compound 10 µM
[7] = second compound 0.1 µM, first compound 0.0316 µM
[8] = second compound 0.1 µM, first compound 0.1 µM
[9] = second compound 0.1 µM, first compound 0.316 µM
[10] = second compound 0.1 µM, first compound 1 µM
[11] = second compound 0.1 µM, first compound 3.16 µM
[12] = second compound 0.1 µM, first compound 10 µM
[13] = second compound 0.316 µM, first compound 0.0316 µM
[14] = second compound 0.316 µM, first compound 0.1 µM
[15] = second compound 0.316 µM, first compound 0.316 µM
[16] = second compound 0.316 µM, first compound 1 µM
[17] = second compound 0.316 µM, first compound 3.16 µM
[18] = second compound 0.316 µM, first compound 10 µM
[19] = second compound 1 µM, first compound 0.0316 µM
[20] = second compound 1 µM, first compound 0.1 µM
[21] = second compound 1 µM, first compound 0.316 µM
[22] = second compound 1 µM, first compound 1 µM
[23] = second compound 1 µM, first compound 3.16 µM
[24] = second compound 1 µM, first compound 10 µM
[25] = second compound 3.16 µM, first compound 0.0316 µM
[26] = second compound 3.16 µM, first compound 0.1 µM
[27] = second compound 3.16 µM, first compound 0.316 µM
[28] = second compound 3.16 µM, first compound 1 µM
[29] = second compound 3.16 µM, first compound 3.16 µM
[30] = second compound 3.16 µM, first compound 10 µM
[31] = second compound 10 µM, first compound 0.0316 µM
[32] = second compound 10 µM, first compound 0.1 µM
[33] = second compound 10 µM, first compound 0.316 µM
[34] = second compound 10 µM, first compound 1 µM
[35] = second compound 10 µM, first compound 3.16 µM
[36] = second compound 10 µM, first compound 10 µM
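Also: spheroids exposed to the agents for 7 days before readout.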

SMILES: CC1COCCN1c1cc(C2(S(C)(=N)=O)CC2)nc(-c2ccnc3[nH]ccc23)n1 (stereo unspecified) + CNC(=O)c1ccc(Nc2nc(OC3CCCC3)c3c(-c4ccc5nc(C)oc5c4)c[nH]c3n2)c(OC)c1
- IC50 (second compound 0.0316 µM): > 10 µM
- IC50 (second compound 0.1 µM): > 10 µM
- IC50 (second compound 0.316 µM): > 10 µM
- IC50 (second compound 1 µM): < 0.0316 µM
- IC50 (second compound 3.16 µM): < 0.0316 µM
- IC50 (second compound 10 µM): < 0.0316 µM
- viability, T/C [1]: 88.2%
- viability, T/C [2]: 108%
- viability, T/C [3]: 98.8%
- viability, T/C [4]: 115%
- viability, T/C [5]: 106%
- viability, T/C [6]: 104%
- viability, T/C [7]: 111%
- viability, T/C [8]: 119%
- viability, T/C [9]: 115%
- viability, T/C [10]: 116%
- viability, T/C [11]: 101%
- viability, T/C [12]: 80.5%
- viability, T/C [13]: 67.4%
- viability, T/C [14]: 56%
- viability, T/C [15]: 55%
- viability, T/C [16]: 66.9%
- viability, T/C [17]: 75.9%
- viability, T/C [18]: 40.5%
- viability, T/C [19]: 35.2%
- viability, T/C [20]: 33.1%
- viability, T/C [21]: 34.1%
- viability, T/C [22]: 34.7%
- viability, T/C [23]: 27%
- viability, T/C [24]: 14.7%
- viability, T/C [25]: 34.1%
- viability, T/C [26]: 32.8%
- viability, T/C [27]: 31.1%
- viability, T/C [28]: 32.3%
- viability, T/C [29]: 21.1%
- viability, T/C [30]: 9.92%
- viability, T/C [31]: 32%
- viability, T/C [32]: 27.5%
- viability, T/C [33]: 28.2%
- viability, T/C [34]: 27.5%
- viability, T/C [35]: 20.6%
- viability, T/C [36]: 9.29%

SMILES: C=C(F)C(=O)N1CCN(c2nc(OCC3CCCN3C)nc3c2CCN(c2cccc4cccc(Cl)c24)C3)CC1CC#N (stereo unspecified) + CN1CCN(c2cc(C(=O)Nc3cc4cc(-c5cnn(C)c5)ccc4cn3)ccn2)CC1
- IC50 (second compound 0.0316 µM): 5.38 µM
- IC50 (second compound 0.1 µM): 5.61 µM
- IC50 (second compound 0.316 µM): < 0.0316 µM
- IC50 (second compound 1 µM): < 0.0316 µM
- IC50 (second compound 3.16 µM): < 0.0316 µM
- IC50 (second compound 10 µM): < 0.0316 µM
- viability, T/C [1]: 121%
- viability, T/C [2]: 103%
- viability, T/C [3]: 118%
- viability, T/C [4]: 101%
- viability, T/C [5]: 94%
- viability, T/C [6]: 1.08%
- viability, T/C [7]: 106%
- viability, T/C [8]: 95.9%
- viability, T/C [9]: 92.6%
- viability, T/C [10]: 87%
- viability, T/C [11]: 110%
- viability, T/C [12]: 1.37%
- viability, T/C [13]: 50.1%
- viability, T/C [14]: 51.6%
- viability, T/C [15]: 36.4%
- viability, T/C [16]: 41.5%
- viability, T/C [17]: 45.6%
- viability, T/C [18]: 0.87%
- viability, T/C [19]: 0.79%
- viability, T/C [20]: 0.16%
- viability, T/C [21]: 0.83%
- viability, T/C [22]: 0.12%
- viability, T/C [23]: 0.11%
- viability, T/C [24]: 1.63%
- viability, T/C [25]: 0.14%
- viability, T/C [26]: 0.63%
- viability, T/C [27]: 0.92%
- viability, T/C [28]: 0.12%
- viability, T/C [29]: 0.11%
- viability, T/C [30]: 1.67%
- viability, T/C [31]: 0.19%
- viability, T/C [32]: 0.18%
- viability, T/C [33]: 0.88%
- viability, T/C [34]: 0.29%
- viability, T/C [35]: 0.19%
- viability, T/C [36]: 0.93%

SMILES: CC(=O)O[C@H]1C(=O)[C@@]2(C)[C@H]([C@H](OC(=O)c3ccccc3)[C@]3(O)C[C@H](OC(=O)[C@H](O)[C@@H](NC(=O)c4ccccc4)c4ccccc4)C(C)=C1C3(C)C)[C@]1(OC(C)=O)CO[C@@H]1C[C@@H]2O + CN1CCN(c2cc(C(=O)Nc3cc4cc(-c5cnn(C)c5)ccc4cn3)ccn2)CC1
- IC50 (second compound 0.0316 µM): 2.88 µM
- IC50 (second compound 0.1 µM): 2.37 µM
- IC50 (second compound 0.316 µM): < 0.0316 µM
- IC50 (second compound 1 µM): < 0.0316 µM
- IC50 (second compound 3.16 µM): < 0.0316 µM
- IC50 (second compound 10 µM): < 0.0316 µM
- viability, T/C [1]: 110%
- viability, T/C [2]: 126%
- viability, T/C [3]: 91.4%
- viability, T/C [4]: 95%
- viability, T/C [5]: 43.5%
- viability, T/C [6]: 36.3%
- viability, T/C [7]: 94.8%
- viability, T/C [8]: 100%
- viability, T/C [9]: 98.3%
- viability, T/C [10]: 63.1%
- viability, T/C [11]: 50.1%
- viability, T/C [12]: 30.3%
- viability, T/C [13]: 26%
- viability, T/C [14]: 24.9%
- viability, T/C [15]: 29.8%
- viability, T/C [16]: 19.9%
- viability, T/C [17]: 16.1%
- viability, T/C [18]: 14.4%
- viability, T/C [19]: 0.1%
- viability, T/C [20]: 0.47%
- viability, T/C [21]: 0.12%
- viability, T/C [22]: 0.07%
- viability, T/C [23]: 0.06%
- viability, T/C [24]: 0.07%
- viability, T/C [25]: 0.1%
- viability, T/C [26]: 0.79%
- viability, T/C [27]: 0.18%
- viability, T/C [28]: 0.67%
- viability, T/C [29]: 0.76%
- viability, T/C [30]: 0.11%
- viability, T/C [31]: 0.12%
- viability, T/C [32]: 0.14%
- viability, T/C [33]: 0.2%
- viability, T/C [34]: 0.16%
- viability, T/C [35]: 1.02%
- viability, T/C [36]: 2.94%
